From ChEMBL document CHEMBL1201862, “PubChem BioAssay data set” (2004) come the findings set out here.

Experiment [1] concerns the target T1, Hexokinase HKDC1 (Homo sapiens, UniProt Q2TB90).
T1 sequence (Q2TB90 whole entry): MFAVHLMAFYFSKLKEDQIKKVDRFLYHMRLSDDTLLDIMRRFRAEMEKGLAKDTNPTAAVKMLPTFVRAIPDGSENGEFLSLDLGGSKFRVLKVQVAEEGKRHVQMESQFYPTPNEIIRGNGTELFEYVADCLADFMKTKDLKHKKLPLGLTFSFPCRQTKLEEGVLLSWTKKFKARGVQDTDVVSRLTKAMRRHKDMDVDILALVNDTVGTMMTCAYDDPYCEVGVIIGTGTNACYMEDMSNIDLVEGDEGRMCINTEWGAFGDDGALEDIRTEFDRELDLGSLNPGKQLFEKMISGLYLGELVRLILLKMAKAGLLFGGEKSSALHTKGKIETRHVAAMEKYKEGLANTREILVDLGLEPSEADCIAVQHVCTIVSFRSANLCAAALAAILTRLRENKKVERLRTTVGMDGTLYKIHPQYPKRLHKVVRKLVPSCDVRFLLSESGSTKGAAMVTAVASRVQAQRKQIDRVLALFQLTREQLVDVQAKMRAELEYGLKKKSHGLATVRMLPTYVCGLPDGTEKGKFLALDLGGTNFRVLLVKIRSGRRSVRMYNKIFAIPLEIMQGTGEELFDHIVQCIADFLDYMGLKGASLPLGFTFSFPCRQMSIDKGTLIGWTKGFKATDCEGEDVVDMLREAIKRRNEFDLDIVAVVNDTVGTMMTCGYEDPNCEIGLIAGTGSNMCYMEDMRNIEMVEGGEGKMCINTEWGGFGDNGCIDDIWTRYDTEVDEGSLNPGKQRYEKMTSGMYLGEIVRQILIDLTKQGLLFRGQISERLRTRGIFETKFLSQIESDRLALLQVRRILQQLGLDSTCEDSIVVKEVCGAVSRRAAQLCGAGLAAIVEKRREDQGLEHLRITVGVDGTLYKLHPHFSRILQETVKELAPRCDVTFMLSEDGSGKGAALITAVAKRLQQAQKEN
Briefly: SAR analysis of small molecule inhibitors of hexokinase domain containing I (HKDC1). [Related pubchem assays (depositor defined):AID493160, AID493190]. The class given is functional.

The target in experiment [2] is T2, Hexokinase-1 (Homo sapiens, UniProt P19367).
T2 sequence (P19367 whole entry): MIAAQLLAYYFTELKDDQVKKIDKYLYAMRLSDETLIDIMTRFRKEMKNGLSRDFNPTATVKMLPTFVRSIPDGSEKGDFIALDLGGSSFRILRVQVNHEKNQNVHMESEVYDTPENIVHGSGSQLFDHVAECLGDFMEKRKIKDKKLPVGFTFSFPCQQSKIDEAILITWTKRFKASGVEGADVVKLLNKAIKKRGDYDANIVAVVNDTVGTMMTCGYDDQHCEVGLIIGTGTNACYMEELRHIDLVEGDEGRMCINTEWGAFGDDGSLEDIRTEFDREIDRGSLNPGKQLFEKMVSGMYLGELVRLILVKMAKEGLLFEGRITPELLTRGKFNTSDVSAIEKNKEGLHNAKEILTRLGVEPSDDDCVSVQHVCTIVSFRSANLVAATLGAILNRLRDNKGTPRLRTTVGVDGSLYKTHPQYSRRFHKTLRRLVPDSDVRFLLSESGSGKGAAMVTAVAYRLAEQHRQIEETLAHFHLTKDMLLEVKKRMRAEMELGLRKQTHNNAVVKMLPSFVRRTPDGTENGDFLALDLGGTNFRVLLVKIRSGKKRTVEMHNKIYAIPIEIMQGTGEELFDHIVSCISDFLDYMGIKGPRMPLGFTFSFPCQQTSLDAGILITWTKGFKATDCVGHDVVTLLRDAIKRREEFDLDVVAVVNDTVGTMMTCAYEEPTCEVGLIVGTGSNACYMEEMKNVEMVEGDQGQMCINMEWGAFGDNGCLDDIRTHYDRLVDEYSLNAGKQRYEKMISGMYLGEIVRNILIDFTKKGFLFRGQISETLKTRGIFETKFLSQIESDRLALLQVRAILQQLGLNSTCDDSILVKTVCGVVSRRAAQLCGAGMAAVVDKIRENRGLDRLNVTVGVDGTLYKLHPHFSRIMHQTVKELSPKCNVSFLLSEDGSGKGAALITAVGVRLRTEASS
Briefly: SAR analysis of small molecule inhibitors of hexokinase domain containing I (HKDC1) in the hexokinase 1 selectivity assay. [Related pubchem assays (depositor defined):AID493160, AID493190]. In kind it is functional.

Another experiment concerns HeLa. Briefly: HeLa cell cytotoxicity, dose response, cytotoxicity control for MITF activator project, CellTiter-Glo luminescence, cherry-pick samples (AID 540259). In kind it is functional, cell-based. The conditions noted are these: Homo sapiens.
For the next experiment, the target named is Phospholipase D2 (Homo sapiens, UniProt O14939). Briefly: PLD2 inhibitor potency in cells, dose response (AID 602147).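 Note: cellular assay in HEK293 cells overexpressing GFP-tagged PLD2.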 The class given is functional.
Phospholipase D2, sequence (O14939 whole entry): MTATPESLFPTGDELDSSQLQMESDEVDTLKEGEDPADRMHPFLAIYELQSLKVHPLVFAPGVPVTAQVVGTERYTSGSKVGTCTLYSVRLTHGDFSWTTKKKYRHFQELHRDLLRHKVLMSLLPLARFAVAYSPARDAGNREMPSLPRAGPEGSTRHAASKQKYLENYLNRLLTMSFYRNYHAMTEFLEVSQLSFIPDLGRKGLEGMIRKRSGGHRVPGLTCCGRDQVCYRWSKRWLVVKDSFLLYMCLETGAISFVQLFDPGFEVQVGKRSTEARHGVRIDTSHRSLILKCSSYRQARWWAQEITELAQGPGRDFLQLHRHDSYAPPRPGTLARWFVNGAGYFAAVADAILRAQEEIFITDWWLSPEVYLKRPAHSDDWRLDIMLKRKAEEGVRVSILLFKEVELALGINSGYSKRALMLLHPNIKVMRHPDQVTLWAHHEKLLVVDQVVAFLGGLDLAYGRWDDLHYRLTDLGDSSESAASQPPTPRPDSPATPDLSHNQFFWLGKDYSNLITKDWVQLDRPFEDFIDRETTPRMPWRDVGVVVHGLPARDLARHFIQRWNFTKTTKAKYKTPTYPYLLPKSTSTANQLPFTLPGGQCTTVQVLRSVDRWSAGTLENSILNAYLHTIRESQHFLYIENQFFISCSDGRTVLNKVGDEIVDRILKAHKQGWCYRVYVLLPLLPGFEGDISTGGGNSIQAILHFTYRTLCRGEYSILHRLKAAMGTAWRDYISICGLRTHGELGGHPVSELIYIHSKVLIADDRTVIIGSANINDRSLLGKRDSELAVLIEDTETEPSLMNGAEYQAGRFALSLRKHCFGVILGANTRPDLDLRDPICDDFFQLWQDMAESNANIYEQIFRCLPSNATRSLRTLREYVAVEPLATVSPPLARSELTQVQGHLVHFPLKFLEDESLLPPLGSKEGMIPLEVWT
Another experiment deals with Phospholipase D1 (Homo sapiens, UniProt Q13393). Briefly: PLD1 inhibitor potency in cells, dose response (AID 602151).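 Note: cellular PLD1 assay in Calu-1 cells stimulated with PMA.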 In kind it is functional.
Phospholipase D1, sequence (Q13393 whole entry): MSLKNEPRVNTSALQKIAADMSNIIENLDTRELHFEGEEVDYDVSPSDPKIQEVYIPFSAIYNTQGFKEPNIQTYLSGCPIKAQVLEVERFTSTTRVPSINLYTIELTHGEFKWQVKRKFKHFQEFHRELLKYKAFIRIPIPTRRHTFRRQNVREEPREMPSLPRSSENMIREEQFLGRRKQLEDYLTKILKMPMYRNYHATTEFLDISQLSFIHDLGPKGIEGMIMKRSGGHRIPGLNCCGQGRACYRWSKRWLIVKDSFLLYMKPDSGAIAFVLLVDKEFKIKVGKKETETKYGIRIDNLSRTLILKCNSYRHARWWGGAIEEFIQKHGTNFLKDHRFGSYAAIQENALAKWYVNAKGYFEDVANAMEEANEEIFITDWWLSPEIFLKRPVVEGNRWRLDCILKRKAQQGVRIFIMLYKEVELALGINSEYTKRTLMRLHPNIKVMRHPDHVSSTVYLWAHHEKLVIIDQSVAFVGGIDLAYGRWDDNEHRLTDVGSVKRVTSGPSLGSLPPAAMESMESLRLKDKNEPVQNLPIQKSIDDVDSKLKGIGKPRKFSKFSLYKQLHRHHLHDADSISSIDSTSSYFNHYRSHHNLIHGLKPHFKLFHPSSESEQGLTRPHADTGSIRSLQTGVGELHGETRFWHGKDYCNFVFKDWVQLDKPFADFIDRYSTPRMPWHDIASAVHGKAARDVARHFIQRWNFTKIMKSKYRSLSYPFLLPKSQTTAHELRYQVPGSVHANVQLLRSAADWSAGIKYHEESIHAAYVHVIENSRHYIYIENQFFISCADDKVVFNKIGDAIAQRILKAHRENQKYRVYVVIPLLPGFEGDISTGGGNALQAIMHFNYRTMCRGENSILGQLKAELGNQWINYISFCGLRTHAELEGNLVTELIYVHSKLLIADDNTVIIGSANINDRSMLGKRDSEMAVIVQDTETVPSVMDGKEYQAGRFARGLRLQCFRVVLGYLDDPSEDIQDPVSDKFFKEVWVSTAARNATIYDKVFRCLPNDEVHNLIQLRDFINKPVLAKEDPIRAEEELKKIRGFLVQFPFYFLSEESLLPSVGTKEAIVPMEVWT
Experiment [3] has as its target T1, Hexokinase HKDC1. Briefly: HKDC1 hexokinase inhibitors, SAR follow-up, biochemical, set 2 (AID 588355). In kind it is functional.
Experiment [4] has as its target T2, Hexokinase-1. Briefly: HK1 enzyme inhibition by HKDC1 hits, SAR follow-up, selectivity assay for HKDC1 inhibitor project, biochemical, set 2, resazurin fluorescence coupled readout (AID 588356). The class given is functional.
Experiment [5] concerns INS1. Briefly: protection of INS-1E cells from cytokine death, dose response, ATP luminescence, dry powder (AID 488844). The conditions noted are these: Rattus norvegicus. In kind it is functional, cell-based.
Experiment [6] deals with INS1. Briefly: protection from cytokine-driven beta-cell apoptosis, dose response, JC-1 fluorescence, INS-1E, dry powder, set 2 (AID 488867). In kind it is functional, cell-based. Conditions: Rattus norvegicus.
Experiment [7] deals with INS1. Briefly: protection from cytokine-induced mitochondrial depolarization, dose response, cell-based, INS-1E, JC-1 fluorescence ratio, dry powder (AID 488931). The class given is functional. Conditions: Rattus norvegicus.
Experiment [8] deals with Dual specificity tyrosine-phosphorylation-regulated kinase 1A (Rattus norvegicus, UniProt Q63470). The class given is biochemical, Homo sapiens.
For experiment [9], the target named is Heat shock protein HSP 90-alpha (Homo sapiens, UniProt P07900). In kind it is functional, organism-based.
The target in experiment [10] is Luciferin 4-monooxygenase (Photuris pensylvanica, UniProt Q27757). Briefly: firefly luciferase enzyme inhibitors, dose response, counter-screen for HSF-1 reporter inhibitor project, biochemical, Cell Titer Glo, luminescence, cherry-picks (AID 588847).
Luciferin 4-monooxygenase, sequence (Q27757 whole entry): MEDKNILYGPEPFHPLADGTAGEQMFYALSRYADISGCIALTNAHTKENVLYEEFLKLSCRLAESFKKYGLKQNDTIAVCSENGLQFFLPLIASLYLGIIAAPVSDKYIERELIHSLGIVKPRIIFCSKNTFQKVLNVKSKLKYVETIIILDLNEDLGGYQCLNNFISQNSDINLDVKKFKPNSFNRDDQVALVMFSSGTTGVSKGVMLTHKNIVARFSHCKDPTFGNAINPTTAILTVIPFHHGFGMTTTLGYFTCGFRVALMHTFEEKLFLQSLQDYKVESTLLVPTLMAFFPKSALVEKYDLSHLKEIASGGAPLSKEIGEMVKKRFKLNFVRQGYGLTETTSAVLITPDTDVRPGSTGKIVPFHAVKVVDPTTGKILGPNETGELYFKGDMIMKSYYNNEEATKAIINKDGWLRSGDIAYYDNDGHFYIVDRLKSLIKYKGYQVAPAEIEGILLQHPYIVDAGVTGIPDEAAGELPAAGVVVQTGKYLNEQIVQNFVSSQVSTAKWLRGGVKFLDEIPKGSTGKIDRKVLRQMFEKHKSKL
Experiment [11] can be described thus: cytotoxicity in MIN6 insulinoma cells, dose response, cytotoxicity control, cell-based, mouse insulinoma (AID 2122).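 Note: confirmatory high-throughput counterscreen run to flag cytotoxic compounds; mouse MIN-6 beta cells carrying an insulin promoter eGFP reporter.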 In kind it is functional.
Experiment [12] is described as follows: inhibitors of SNCA 5'UTR-driven reporter translation, confirmation, H4 neuroglioma cells, luminescence (AID 1988). The class given is functional, cell-based.
The nature of experiment [13]: Luminescence Cell-Based Dose Response HTS to Identify Inhibitors of 5'UTR Stem-Loop Driven Prion Protein mRNA Translation in H4 Neuroglioblastoma Cells. [Related pubchem assays: 1827 (Project Summary), 1813 (Primary HTS)]. The class given is functional.
Experiment [14] in a line: inhibitors of firefly luciferase expression or activity, dose response, H4 neuroglioma cells, luminescence (AID 1990). The class given is functional, cell-based.
Experiment [15] can be described thus: insulin promoter down-regulators in MIN6 cells, imaging, high-content screening, mouse beta cells (AID 1628). In kind it is functional.

Active and inactive are the calls of the source.

`Nc1n[nH]c(SCC(=O)Nc2cc(S(=O)(=O)N3CCOCC3)ccc2Cl)n1`: the IC50 on Hexokinase HKDC1 [1] and on Hexokinase-1 [2] was > 80 µM (inactive) in each case.
Consider `CCCN(Cc1ccc(C)cc1)C(=O)c1ccc(CNS(=O)(=O)c2ccc(C(C)=O)cc2)cc1`, for which, in the experiment on HeLa, the AC50 is 37.4 µM (active).
On to `C[C@@H](CN1CCC2(CC1)C(=O)NCN2c1ccc(F)c(F)c1)NC(=O)c1ccc2ccccc2c1`, for which the IC50 on Phospholipase D2 is 300 nM (active); at Phospholipase D1, 100 nM (active).
Take `Cc1ccc(NC2c3ccccc3C(=O)N2c2ccccc2C)cc1` (stereo not drawn): the IC50 on Hexokinase HKDC1 [3] and on Hexokinase-1 [4] was > 80 µM (inactive) in each case.
Turning to `COc1ccc(S(=O)(=O)N(C)C[C@@H]2Oc3c(NC(=O)Nc4ccccc4)cccc3C(=O)N([C@H](C)CO)C[C@H]2C)cc1`, the AC50 in the experiment on INS1 [5] is 22.8 µM (active); with INS1 [6] it was > 260 µM (inactive); in the experiment with INS1 [7], > 195 µM (inactive).
In the case of `O=[N+]([O-])c1cc(/C=N/O)ccc1Oc1ccccc1Cl`, the figures for the AC50 in experiment [8] and in experiment [9] were 3.19 µM (active) and 3.04 µM (active), respectively.
Turning to `C[C@@H]1C[C@H]2[C@@H]3CCC4=CC(=O)C=C[C@]4(C)[C@@]3(F)[C@@H](O)C[C@]2(C)[C@@]1(O)C(=O)CO` [DEXAMETHASONE], in experiment [10], the AC50 was > 52 µM (inactive). The IC50 in experiment [11] is > 16 µM (inactive); in experiment [15], < 250 nM (active). For the same compound, the EC50 in experiment [12], in experiment [13] and in experiment [14] was > 120 µM (not active) in each case.
